This passage reports DC50 results from patent publication US11414416B1, “Compounds and uses thereof” (Foghorn Therapeutics Inc., priority 2019, dated 2022).

Like-named read-outs stand apart in the source and are kept apart here. Bounds are passed on as bounds.

The target of the experiment is Nanoluciferase-BRD9 fusion protein (Homo sapiens (Human), UniProt Q9H8M2). In words: SYO1 BRD9 NanoLuc degradation assay. It counts as cell-based. The conditions noted are these: SYO-1 cells expressing 3×FLAG-NLuc-BRD9, 6 hours, read-out: SYO1 BRD9-NanoLuc degradation IC50. The essentials: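 Degradation was read as loss of nanoluciferase signal (Nano-Glo) after 6 h compound exposure in a stable SYO-1 line carrying 3×FLAG-NLuc-BRD9 (8000 cells/well). Normalised between DMSO (high) and a 1 μM known BRD9 degrader (low).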
Sequence of Nanoluciferase-BRD9 fusion protein (Q9H8M2 whole entry, the tested form may be a part): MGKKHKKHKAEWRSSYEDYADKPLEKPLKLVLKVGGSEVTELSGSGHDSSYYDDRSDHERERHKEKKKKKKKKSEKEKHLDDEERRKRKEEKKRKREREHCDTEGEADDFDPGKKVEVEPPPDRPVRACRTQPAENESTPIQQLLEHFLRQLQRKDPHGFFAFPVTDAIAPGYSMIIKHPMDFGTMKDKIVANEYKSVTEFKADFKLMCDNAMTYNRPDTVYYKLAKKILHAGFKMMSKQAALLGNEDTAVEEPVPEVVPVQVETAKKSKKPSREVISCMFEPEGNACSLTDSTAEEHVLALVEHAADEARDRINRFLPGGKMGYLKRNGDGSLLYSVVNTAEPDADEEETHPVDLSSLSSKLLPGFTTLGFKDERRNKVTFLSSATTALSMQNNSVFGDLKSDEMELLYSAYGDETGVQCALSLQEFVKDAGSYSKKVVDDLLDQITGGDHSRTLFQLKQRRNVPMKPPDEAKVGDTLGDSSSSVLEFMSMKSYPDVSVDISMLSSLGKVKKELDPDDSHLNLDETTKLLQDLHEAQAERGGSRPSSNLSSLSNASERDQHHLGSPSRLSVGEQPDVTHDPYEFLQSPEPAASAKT

On to `COc1cc(-c2cn(C)c(=O)c3cccn23)cc(OC)c1CN1CCC2(CC1)CN(c1ccc3c(c1)C(=O)N(C1CCC(=O)NC1=O)C3)C2` (centres unmarked) [Compound D431], for which the DC50 (Table 5C) was less than 0.01 µM. Consider `COc1cc(-c2cn(C)c(=O)c3cnccc23)cc(OC)c1CN1CC(CC(=O)N2CCCC3(CC(Oc4ccc5c(c4)C(=O)N([C@@H]4CCC(=O)NC4=O)C5=O)C3)C2)C1` (some centres unmarked) [Compound D264], for which, for the setting “Table 5B”, the DC50 was 0.01 to 0.1 µM.

For the molecule `COc1cc(-c2cc(C)c(=O)n(C)c2)cc(OC)c1CN1CCC2(CCN(c3ccc4c(c3)C(=O)N(C3CCC(=O)NC3=O)C4=O)C2)C1` (centres unmarked) [Compound D336], for the setting “Table 5B”, the DC50 was less than 0.01 µM. In the case of `COc1cc(-c2cc(C(F)F)c(=O)n(C)c2)cc(OC)c1CN1CCC2(C1)CN(c1ccc3c(c1)CN(C1CCC(=O)NC1=O)C3=O)C2` (centres unmarked) [Compound D408], the DC50 (Table 5C) is less than 0.01 µM. For `COc1cc(-c2cn(C)c(=O)c3cnccc23)cc(OC)c1CN(C)CCOCCn1cc(CCOc2ccc3c(c2)C(=O)N(C2CCC(=O)NC2=O)C3=O)nn1` (centres unmarked) [Compound D292], the DC50 (Table 5B) was in the range of 0.1 to 1 µM.

With `COc1cc(-c2cn(C)c(=O)c3cnccc23)cc(OC)c1CN1CC(CC(=O)N2CCC3(CC(Oc4ccc5c(c4)C(=O)N([C@@H]4CCC(=O)NC4=O)C5=O)C3)C2)C1` (some centres unmarked) [Compound D266], where the note is “Table 5B”, the DC50 was in the range of 0.01 to 0.1 µM. On the same count and under the same terms, in the case of `COc1cc(-c2cn(C)c(=O)c3cnccc23)cc(OC)c1CN1CCC2C(C1)CN2C(=O)CCC#Cc1ccc2c(c1)C(=O)N(C1CCC(=O)NC1=O)C2=O` (centres unmarked) [Compound D243] it was less than 0.01 µM. `COc1cc(-c2cn(C)c(=O)c(C)c2C)cc(OC)c1CN1CCC2(C1)CN(c1ccc3c(c1)C(=O)N(C1CCC(=O)NC1=O)C3=O)C2` (centres unmarked) [Compound D430]: the DC50 (Table 5C) was less than 0.01 µM. The same measure, in the same setting: next, `COc1cc(CN2CCC3(CC2)CN(c2ccc4c(c2)C(=O)N(C2CCC(=O)NC2=O)C4)C3)cc(-c2cn(C)c(=O)c3cnccc23)c1` (centres unmarked) [Compound D387]: less than 0.01 µM. As to `COc1cc(-c2cn(C)c(=O)c3cnccc23)cc(OC)c1CN1CC2(CCN(C(=O)C#Cc3ccc4c(c3)C(=O)N(C3CCC(=O)NC3=O)C4=O)CC2)C1` (centres unmarked) [Compound D198], for the setting “Table 5B”, the DC50 was less than 0.01 µM.

Turning to `COc1cc(-c2cn(C)c(=O)c3cnccc23)cc(OC)c1CN(C)CCCCNC1CC2(C1)CC(Oc1ccc3c(c1)C(=O)N(C1CCC(=O)NC1=O)C3=O)C2` (centres unmarked) [Compound D257], for the setting “Table 5B”, the DC50 is less than 0.01 µM. Turning to `COc1cc(-c2cn(C)c(=O)c3cnccc23)cc(OC)c1CN1CCC2(CC1)CN(c1ccc3c(c1)C(=O)N(C1CC(=O)NC(=O)C1)C3)C2` [Compound D474], where the note is “Table 5C”, the DC50 was more than 1 µM. Same read-out and setting: in the case of `COc1cc(-c2cc(C)c(=O)n(C)c2C)cc(OC)c1CN1CCN(c2ccc3c(c2)C(=O)N(C2CCC(=O)NC2=O)C3)CC1` (centres unmarked) [Compound D427] it was less than 0.01 µM. On to `COc1cc(-c2cn(C)c(=O)c3cnccc23)cc(OC)c1CN1CC(CC(=O)N[C@@H]2C[C@]23CCN(c2ccc4c(c2)C(=O)N(C2CCC(=O)NC2=O)C4=O)C3)C1` (some centres unmarked) [Compound D231], for which, under “Table 5B”, the DC50 was 0.1 to 1 µM. As to `CNC(=O)N(C)Cc1cc(-c2cc(OC)c(CN3CC(CN4CCC5(CC4)CN(c4ccc6c(c4)C(=O)N(C4CCC(=O)NC4=O)C6=O)C5)C3)c(OC)c2)cn(C)c1=O` (centres unmarked) [Compound D355], the DC50 (Table 5B) was more than 1 µM. Regarding `COc1cc(-c2cn(C)c(=O)c3[nH]cc(C)c23)cc(OC)c1CN1CCC2(CC1)CN(c1ccc3c(c1)C(=O)N(C1CCC(=O)NC1=O)C3=O)C2` (centres unmarked) [Compound D418], for the setting “Table 5C”, the DC50 was less than 0.01 µM. With `COc1cc(-c2cn(C)c(=O)c3cn(C)nc23)cc(OC)c1CN1CCN(CCC2CCN(c3ccc4c(c3)C(=O)N(C3CCC(=O)NC3=O)C4)CC2)CC1` (centres unmarked) [Compound D400], the DC50 (Table 5C) is less than 0.01 µM. Consider `COc1cc(-c2cn(C)c(=O)c3cnccc23)cc(OC)c1CN(C)CCCCN1CCC2(CC(Oc3ccc4c(c3)C(=O)N(C3CCC(=O)NC3=O)C4=O)C2)C1` (centres unmarked) [Compound D253], for which the DC50 (Table 5B) is less than 0.01 µM. The same measure, in the same setting: next, `COc1cc(-c2cn(C)c(=O)c3cnccc23)cc(OC)c1CN1CC(CC(=O)N2CCC3(CC2)CCN(c2ccc4c(c2)C(=O)N(C2CCC(=O)NC2=O)C4=O)C3)C1` (centres unmarked) [Compound D191]: less than 0.01 µM. Regarding `COc1cc(-c2cn(C)c(=O)c3cnccc23)cc(OC)c1CN1CCC2(CC1)CN(CCCCOc1ccc3c(c1)C(=O)N(C1CCC(=O)NC1=O)C3=O)CCO2` (centres unmarked) [Compound D50, 5-(4-(9-(2,6-dimethoxy-4-(2-methyl-1-oxo-1,2-dihydro-2,7-naphthyridin-4-yl)benzyl)-1-oxa-4,9-diazaspiro[5.5]undecan-4-yl)butoxy)-2-(2,6-dioxopiperidin-3-yl)isoindoline-1,3-dione], the DC50 (Table 5A) was less than 0.01 µM. Regarding `COc1cc(-c2cn(C)c(=O)c3cnccc23)cc(OC)c1CN(C)CCn1cc(COC2CN(c3ccc4c(c3)C(=O)N(C3CCC(=O)NC3=O)C4=O)C2)nn1` (centres unmarked) [Compound D277], the DC50 (Table 5B) was less than 0.01 µM. Same read-out and setting: next, `COc1cc(-c2cn(C)c(=O)c3cnccc23)cc(OC)c1CN1CCC2(CC1)CCN(C(=O)CC#Cc1ccc3c(c1)C(=O)N(C1CCC(=O)NC1=O)C3=O)C2` (centres unmarked) [Compound D313]: less than 0.01 µM; `COc1cc(-c2cc(C)c(=O)n(C)c2)c(OC)cc1CN1CC(CN2CCC3(CC2)CN(c2ccc4c(c2)C(=O)N(C2CCC(=O)NC2=O)C4=O)C3)C1` (centres unmarked) [Compound D353]: less than 0.01 µM. With `COc1cc(-c2cn(C)c(=O)c3cnccc23)cc(OC)c1CN1CCC2(CC1)CN(c1ccc3c(c1)C(=O)N(C1CCCC(=O)NC1=O)C3=O)C2` (centres unmarked) [Compound D388], the DC50 (Table 5C) was less than 0.01 µM. For `COc1cc(-c2cn(C)c(=O)c3cnccc23)cc(OC)c1CN(C)C(=O)CCCCN1CC(Oc2ccc3c(c2)C(=O)N(C2CCC(=O)NC2=O)C3=O)C1` (centres unmarked) [Compound D229], the DC50 (Table 5B) was less than 0.01 µM.

With `COc1cc(-c2cn(C)c(=O)c3cnccc23)cc(OC)c1CN(C)CCOCCn1cc(COC2CN(c3ccc4c(c3)C(=O)N(C3CCC(=O)NC3=O)C4=O)C2)nn1` (centres unmarked) [Compound D295], the DC50 (Table 5B) was 0.1 to 1 µM.

Take `COc1cc(-c2cn(C)c(=O)c3cncn23)cc(OC)c1CN1CC(CN2CCC3(CC2)CN(c2ccc4c(c2)C(=O)N(C2CCC(=O)NC2=O)C4)C3)C1` (centres unmarked) [Compound D361]: the DC50 (Table 5B) is less than 0.01 µM. With `COc1cc(-c2cn(C)c(=O)c3cnccc23)cc(OC)c1CN1CCC2(CC1)CN(c1ccc3c(c1)C(=O)N(C1CCC(=O)NC1=O)C3=O)C2` (centres unmarked) [Compound D373], the DC50 (Table 5C) was less than 0.01 µM.

Regarding `COc1cc(-c2cn(C)c(=O)c3cnccc23)cc(OC)c1CN1CC(n2cc(CN3CC(Oc4ccc5c(c4)C(=O)N(C4CCC(=O)NC4=O)C5=O)C3)nn2)C1` (centres unmarked) [Compound D300], the DC50 (Table 5B) is less than 0.01 µM.

Take `COc1cc(-c2cn(C)c(=O)c3ccccc23)cc(OC)c1CN1CC(CN2CCC3(CC2)CN(c2ccc4c(c2)C(=O)N(C2CCC(=O)NC2=O)C4)C3)C1` (centres unmarked) [Compound D356]: the DC50 (Table 5B) is less than 0.01 µM. On to `COc1cc(-c2ccc(=O)n(C)c2)cc(OC)c1CN1CC(CN2CCC3(CC2)CN(c2ccc4c(c2)C(=O)N(C2CCC(=O)NC2=O)C4=O)C3)C1` (centres unmarked) [Compound D347], for which, under “Table 5B”, the DC50 was less than 0.01 µM. Consider `COc1cc(-c2cn(C)c(=O)c3cnccc23)cc(OC)c1CN1CCC(CCN2CCN(c3ccc4c(c3)C(=O)N(C3CCC(=O)NC3=O)C4=O)CC2)CC1` (centres unmarked) [Compound D42, 5-(4-(2-(1-(2,6-dimethoxy-4-(2-methyl-1-oxo-1,2-dihydro-2,7-naphthyridin-4-yl)benzyl)piperidin-4-yl)ethyl)piperazin-1-yl)-2-(2,6-dioxopiperidin-3-yl)isoindoline-1,3-dione formic acid], for which, where the note is “Table 5A”, the DC50 was less than 0.01 µM.
